31 compounds from publication PMC11726654, “Discovery of MDI-114215: A Potent and Selective LIMK Inhibitor To Treat Fragile X Syndrome” (Journal of Medicinal Chemistry, 2024) can be followed below.

Data set [1] in a line: Microsomal stability. Particulars: for Microsomal CLint Rat: rat microsomes, 2 μM compound.
The target of a further data set is LIMK1 (Homo sapiens, UniProt P53667). Description: RapidFire mass spectrometry kinase assay (cofilin phosphorylation). The following applies: non-phosphorylated LIMK1; mean ± SEM; read-out: Enzymatic (RapidFire) pIC50 LIMK1 (converted). It counts as biochemical.
The target in a further data set is LIMK2 (Homo sapiens, UniProt P53671). The data set is described as above. Particulars: non-phosphorylated LIMK2; mean ± SEM; read-out: Enzymatic (RapidFire) pIC50 LIMK2 (converted). It counts as biochemical.
The nature of data set [2]: Microsomal stability. The following applies: for microsomal CLint at 2 μM / microsomal CLint at 0.5 h, 2 µM: human, microsomes, pH 7.4; for Microsomal CLint Human: human microsomes, 2 μM compound.

LIMK2, sequence (P53671 whole entry): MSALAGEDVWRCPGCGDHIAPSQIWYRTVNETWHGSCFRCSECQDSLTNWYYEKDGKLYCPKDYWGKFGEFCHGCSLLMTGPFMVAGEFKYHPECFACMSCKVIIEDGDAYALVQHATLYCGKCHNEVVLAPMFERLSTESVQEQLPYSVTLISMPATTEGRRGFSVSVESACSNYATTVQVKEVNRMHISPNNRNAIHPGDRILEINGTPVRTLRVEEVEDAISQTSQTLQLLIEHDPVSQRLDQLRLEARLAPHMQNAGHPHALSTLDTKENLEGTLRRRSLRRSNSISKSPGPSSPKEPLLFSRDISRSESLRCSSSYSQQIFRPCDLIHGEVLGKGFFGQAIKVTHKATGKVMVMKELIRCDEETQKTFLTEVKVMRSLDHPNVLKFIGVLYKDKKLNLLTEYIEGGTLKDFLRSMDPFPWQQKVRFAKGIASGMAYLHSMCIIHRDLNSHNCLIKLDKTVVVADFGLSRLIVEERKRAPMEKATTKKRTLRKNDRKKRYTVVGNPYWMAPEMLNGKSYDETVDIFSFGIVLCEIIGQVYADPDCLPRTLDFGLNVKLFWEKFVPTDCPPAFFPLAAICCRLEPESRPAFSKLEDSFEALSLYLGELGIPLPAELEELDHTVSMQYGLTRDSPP
LIMK1, sequence (P53667 whole entry): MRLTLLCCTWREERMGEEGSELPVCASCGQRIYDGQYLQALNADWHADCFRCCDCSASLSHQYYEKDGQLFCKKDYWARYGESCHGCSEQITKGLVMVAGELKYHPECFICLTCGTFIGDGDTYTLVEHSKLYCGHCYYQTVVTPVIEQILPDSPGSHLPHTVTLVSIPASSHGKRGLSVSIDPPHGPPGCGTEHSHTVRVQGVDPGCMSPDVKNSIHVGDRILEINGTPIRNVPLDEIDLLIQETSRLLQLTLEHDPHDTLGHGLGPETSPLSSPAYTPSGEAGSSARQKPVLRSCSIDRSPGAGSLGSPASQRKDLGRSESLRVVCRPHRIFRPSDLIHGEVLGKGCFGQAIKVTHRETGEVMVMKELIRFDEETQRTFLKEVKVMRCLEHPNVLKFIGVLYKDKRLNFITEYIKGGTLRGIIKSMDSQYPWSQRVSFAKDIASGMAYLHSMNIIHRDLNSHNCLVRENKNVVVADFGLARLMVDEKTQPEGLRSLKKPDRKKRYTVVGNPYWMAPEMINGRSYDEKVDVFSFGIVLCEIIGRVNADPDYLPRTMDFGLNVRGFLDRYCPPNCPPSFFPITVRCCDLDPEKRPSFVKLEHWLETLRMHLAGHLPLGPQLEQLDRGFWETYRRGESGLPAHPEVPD

Consider `CCCCN(Cc1ccccn1)C(=O)c1ccc(S(=O)(=O)Nc2ccccc2)cc1` [Compound 45, N-Butyl-4-(N-phenylsulfamoyl)-N-(pyridin-2-ylmethyl)benzamide], for which the “Microsomal CLint Rat” value in the data set “Microsomal stability [1]” was “Rapid”. Further, the IC50 is 1.29 µM on LIMK1 and 0.0513 µM on LIMK2. In addition, the microsomal CLint (commonly the capacity of the preparation to metabolise the compound, expressed as a volume cleared per time) at 2 μM in “Microsomal stability [2]” came to 256 µL/min/mg.
In the case of `O=C(c1ccc(S(=O)(=O)Nc2ccccc2)cc1)N(Cc1ccc2ncoc2c1)CC1CC1` [Compound 62, N-(1,3-Benzoxazol-6-ylmethyl)-N-(cyclopropylmethyl)-4-(phenylsulfamoyl)benzamide], the “Microsomal CLint Rat” value in “Microsomal stability [1]” is on record as “Rapid”. In addition, the IC50 on LIMK1 is 0.0955 µM; on LIMK2 it was 0.00646 µM. This compound also returned a microsomal CLint at 2 μM in the data set “Microsomal stability [2]” of 263 µL/min/mg.
As to `CCCCN(Cc1ccc(F)cc1)C(=O)c1ccc(S(=O)(=O)Nc2ccccc2)cc1` [Compound 39, N-Butyl-N-(4-fluorobenzyl)-4-(N-phenylsulfamoyl)benzamide], the microsomal CLint at 2 μM is 942 µL/min/mg in the data set “Microsomal stability [1]” (rat, microsomes, pH 7.4) and 409 µL/min/mg in the data set “Microsomal stability [2]”. Besides, at LIMK1, the IC50 was 0.195 µM.
For `CCCCN(Cc1ccccc1)C(=O)c1ccc(S(=O)(=O)Nc2ccccc2)cc1F` [Compound 21, N-Benzyl-N-butyl-2-fluoro-4-(phenylsulfamoyl)benzamide], the IC50 at LIMK1 was 0.407 µM; at LIMK2, 0.0302 µM.
In the case of `O=C(c1ccc(S(=O)(=O)Nc2ccccc2)cc1)N(Cc1ccc2[nH]ccc2c1)CC1CC1` [Compound 61, N-(Cyclopropylmethyl)-N-(1H-indol-5-ylmethyl)-4-(phenylsulfamoyl)benzamide], the intrinsic metabolic clearance (microsomal CLint) at 2 μM in the data set “Microsomal stability [1]” (rat, microsomes, pH 7.4) is 802 µL/min/mg; in the data set “Microsomal stability [2]” it was 288 µL/min/mg. In addition, the IC50 on LIMK1 and at LIMK2 was 0.011 µM throughout.
On to `O=C(c1ccc(S(=O)(=O)Nc2ccccc2)cc1)N(Cc1ccccc1)C1CC1` [Compound 58, N-Benzyl-N-cyclopropyl-4-(phenylsulfamoyl)benzamide], for which the “Microsomal CLint Rat” value in “Microsomal stability [1]” is on record as “Rapid”. Moreover, the results for the IC50 on LIMK1 and at LIMK2 were 1.07 µM and 0.0468 µM, respectively. Besides, the microsomal CLint at 2 μM in the data set “Microsomal stability [2]” was 396 µL/min/mg.
For `CCCCN(Cc1ccccc1)C(=O)c1ccc(S(=O)(=O)Nc2ccccc2)cc1C` [Compound 22, N-Benzyl-N-butyl-2-methyl-4-(phenylsulfamoyl)benzamide], the IC50 at LIMK1 is 2.14 µM; on LIMK2, 0.148 µM.
As to `O=C(c1ccc(S(=O)(=O)Nc2ccccc2)cc1)N(Cc1ccccc1)CC1(Cn2ccnc2)CC1` [Compound 60, N-Benzyl-N-[[1-(imidazol-1-ylmethyl)cyclopropyl]methyl]-4-(phenylsulfamoyl)benzamide], the intrinsic clearance (microsomal CLint) at 2 μM came out at 395 µL/min/mg in “Microsomal stability [1]” (rat, microsomes, pH 7.4) and 109 µL/min/mg in “Microsomal stability [2]”. Also, the IC50 at LIMK1 was 0.407 µM; on LIMK2 it was 0.0191 µM.
As for `C[C@H](c1ccccc1)N(CC1CC1)C(=O)c1ccc(S(=O)(=O)Nc2ccccc2)cc1` [Compound 65, (R)-N-(Cyclopropylmethyl)-N-(1-phenylethyl)-4-(N-phenylsulfamoyl)benzamide], the “Microsomal CLint Rat” value in “Microsomal stability [1]” is “Rapid”. Also, the IC50 at LIMK1 is 4.9 µM; at LIMK2, 1.07 µM. The microsomal CLint at 2 μM in “Microsomal stability [2]” turned out to be 419 µL/min/mg.
With `O=C(c1ccc(S(=O)(=O)Nc2ccccc2)cc1)N(Cc1ccccc1)CC1CC1` [Compound 57, N-Benzyl-N-(cyclopropylmethyl)-4-(phenylsulfamoyl)benzamide], in the data set “Microsomal stability [1]”, the “Microsomal CLint Rat” value is recorded as “Rapid”. In “Microsomal stability [2]”, this compound had a microsomal CLint at 0.5 h, 2 µM of 495 µL/min/mg.
As for `CCCCN(Cc1ccccc1)C(=O)c1ccc(S(=O)(=O)Cc2ccccc2)cc1` [Compound 29, N-Benzyl-4-benzylsulfonyl-N-butyl-benzamide], the IC50 at LIMK1 is more than 10 µM; on LIMK2, 0.468 µM.
As for `CCCCN(CC1CCCO1)C(=O)c1ccc(S(=O)(=O)Nc2ccccc2)cc1` (centres unmarked) [Compound 47, N-Butyl-4-(N-phenylsulfamoyl)-N-((tetrahydrofuran-2-yl)methyl)benzamide], the “Microsomal CLint Rat” value in the data set “Microsomal stability [1]” is recorded as “Rapid”. Besides, the IC50 on LIMK1 and on LIMK2 was more than 10 µM each time. In the data set “Microsomal stability [2]”, this compound yielded an intrinsic metabolic clearance (microsomal CLint) at 2 μM of 427 µL/min/mg.
In the case of `C[C@@H](c1ccccc1)N(CC1CC1)C(=O)c1ccc(S(=O)(=O)Nc2ccccc2)cc1` [Compound 64, (S)-N-(Cyclopropylmethyl)-N-(1-phenylethyl)-4-(N-phenylsulfamoyl)benzamide], the “Microsomal CLint Rat” value in the data set “Microsomal stability [1]” was “Rapid”. Besides, the IC50 at LIMK1 is 0.24 µM; on LIMK2 it was 0.1 µM. The compound also displayed an intrinsic clearance (microsomal CLint) at 2 μM in the data set “Microsomal stability [2]” of 774 µL/min/mg.
Consider `CCCCN(Cc1ccccc1)C(=O)c1cnc(S(=O)(=O)Nc2ccccc2)nc1` [Compound 24, N-Benzyl-N-butyl-2-(phenylsulfamoyl)pyrimidine-5-carboxamide], for which the IC50 on LIMK1 was 0.891 µM; on LIMK2, 1.74 µM.
In the case of `CC(C)CN(Cc1ccccc1)C(=O)c1ccc(S(=O)(=O)Nc2ccccc2)cc1` [Compound 59, N-Benzyl-N-isobutyl-4-(phenylsulfamoyl)benzamide], the “Microsomal CLint Rat” value in the data set “Microsomal stability [1]” is on record as “Rapid”. Moreover, the IC50 is 1.02 µM at LIMK1 and 0.0209 µM at LIMK2. The “Microsomal CLint Human” value in the data set “Microsomal stability [2]” is “Rapid”.
Turning to `CCCCN(Cc1ccc(OC)cc1)C(=O)c1ccc(S(=O)(=O)Nc2ccccc2)cc1` [Compound 40, N-Butyl-N-(4-methoxybenzyl)-4-(N-phenylsulfamoyl)benzamide], the microsomal CLint at 2 μM in “Microsomal stability [1]” (rat, microsomes, pH 7.4) was 978 µL/min/mg; in “Microsomal stability [2]” it was 280 µL/min/mg. The results for the IC50 at LIMK1 and at LIMK2 were 0.447 µM and 0.0398 µM, respectively.
On to `Nc1ccc(CN(CC2CC2)C(=O)c2ccc(S(=O)(=O)Nc3ccccc3)cc2)nc1` [Compound 72, N-[(5-Amino-2-pyridyl)methyl]-N-(cyclopropylmethyl)-4-(phenylsulfamoyl)benzamide], for which the intrinsic clearance (microsomal CLint) at 0.5 h, 2 µM in “Microsomal stability [1]” (rat, microsomes, pH 7.4) was found to be 431 µL/min/mg; in “Microsomal stability [2]”, 36 µL/min/mg.
Turning to `O=C(c1ccc(S(=O)(=O)Nc2ccccc2)cc1)N(CCO)Cc1ccccc1` [Compound 53, N-Benzyl-N-(2-hydroxyethyl)-4-(N-phenylsulfamoyl)benzamide], the “Microsomal CLint Rat” value in “Microsomal stability [1]” is listed as “Rapid”. At LIMK1, the IC50 is 0.209 µM. Moreover, in the data set “Microsomal stability [2]”, the microsomal CLint at 2 μM was found to be 76 µL/min/mg.
Take `CCCCN(Cc1cccc(OC)c1)C(=O)c1ccc(S(=O)(=O)Nc2ccccc2)cc1` [Compound 41, N-Butyl-N-(3-methoxybenzyl)-4-(N-phenylsulfamoyl)benzamide]: the microsomal CLint at 2 μM is 783 µL/min/mg in “Microsomal stability [1]” (rat, microsomes, pH 7.4) and 556 µL/min/mg in “Microsomal stability [2]”. Further, the figures for the IC50 on LIMK1 and on LIMK2 were 1.62 µM and 0.224 µM, respectively.
For `O=C(c1ccc(S(=O)(=O)Nc2ccccc2)cc1)N(Cc1ccc(Br)cn1)CC1CC1` [Compound 63, N-[(5-Bromo-2-pyridyl)methyl]-N-(cyclopropylmethyl)-4-(phenylsulfamoyl)benzamide], the “Microsomal CLint Rat” value in the data set “Microsomal stability [1]” is “Rapid”. The IC50 was 0.0191 µM on LIMK1 and 0.0257 µM on LIMK2. In the data set “Microsomal stability [2]”, the microsomal CLint at 2 μM stood at 307 µL/min/mg.
On to `CCN(Cc1ccc(NCCO)cn1)C(=O)c1ccc(S(=O)(=O)Nc2ccccc2)cc1` [Compound 80, N-Ethyl-N-[[5-(2-hydroxyethylamino)-2-pyridyl]methyl]-4-(phenylsulfamoyl)benzamide], for which the microsomal CLint at 2 μM in the data set “Microsomal stability [1]” (rat, microsomes, pH 7.4) came to 51 µL/min/mg; in the data set “Microsomal stability [2]”, 12 µL/min/mg.
For `CCN(Cc1ccccc1)C(=O)c1ccc(S(=O)(=O)Nc2ccccc2)cc1` [Compound 52, N-Benzyl-N-ethyl-4-(N-phenylsulfamoyl)benzamide], in “Microsomal stability [1]”, the “Microsomal CLint Rat” value is given as “Rapid”. Besides, in the data set “Microsomal stability [2]”, the microsomal CLint at 2 μM is 720 µL/min/mg.
For `CN(C)CCNc1ccc(CN(CC2CC2)C(=O)c2ccc(S(=O)(=O)Nc3ccccc3)cc2)nc1` [Compound 78, N-(Cyclopropylmethyl)-N-[[5-[2-(dimethylamino)ethylamino]-2-pyridyl]methyl]-4-(phenylsulfamoyl)benzamide], the microsomal CLint at 2 μM stood at 31 µL/min/mg in the data set “Microsomal stability [1]” (rat, microsomes, pH 7.4) and 23 µL/min/mg in the data set “Microsomal stability [2]”.
As to `CCCCN(Cc1ccccc1)C(=O)c1ccc(S(=O)(=O)Nc2cnoc2)cc1` [Compound 36, N-Benzyl-N-butyl-4-(isoxazol-4-ylsulfamoyl)benzamide], the IC50 on LIMK1 was more than 10 µM; on LIMK2 it was 6.61 µM.
In the case of `CCCCN(Cc1ccccc1)C(=O)c1ccc(S(=O)(=O)Nc2ccccc2)cn1` [Compound 23, N-Benzyl-N-butyl-5-(phenylsulfamoyl)pyridine-2-carboxamide], the IC50 on LIMK1 was 1.35 µM; on LIMK2, 0.166 µM.
Regarding `CCCCN(Cc1ccccc1)C(=O)c1ccc(S(=O)(=O)Nc2ccncc2)cc1` [Compound 35, N-Benzyl-N-butyl-4-(N-(pyridin-4-yl)sulfamoyl)benzamide], the IC50 on LIMK1 and on LIMK2 was more than 10 µM in each case.
Take `CCCCN(Cc1ccco1)C(=O)c1ccc(S(=O)(=O)Nc2ccccc2)cc1` [Compound 46, N-Butyl-N-(furan-2-ylmethyl)-4-(N-phenylsulfamoyl)benzamide]: the “Microsomal CLint Rat” value in “Microsomal stability [1]” was “Rapid”. Besides, at LIMK1, the IC50 is 0.347 µM. Moreover, the “Microsomal CLint Human” value in “Microsomal stability [2]” is “Rapid”.
Take `CCCCN(Cc1ccccc1)C(=O)c1ccc(S(=O)(=O)NC2COC2)cc1` [Compound 38, N-Benzyl-N-butyl-4-(N-(oxetan-3-yl)sulfamoyl)benzamide]: the IC50 on LIMK1 and at LIMK2 was more than 10 µM each time.
On to `CCCCN(Cc1ccccc1)C(=O)c1ccc(S(=O)(=O)NC)cc1` [Compound 34, N-Benzyl-N-butyl-4-(N-methylsulfamoyl)benzamide], for which the IC50 on LIMK1 and on LIMK2 was more than 10 µM in each case.
`CCCCN(Cc1ccccc1)C(=O)c1coc(S(=O)(=O)Nc2ccccc2)c1` [Compound 30, N-Benzyl-N-butyl-5-(phenylsulfamoyl)furan-3-carboxamide]: the IC50 on LIMK1 is 6.92 µM; on LIMK2 it was 0.933 µM.
In the case of `CCCCN(Cc1ccccc1)C(=O)c1ccc(S(=O)(=O)NC2CCC2)cc1` [Compound 37, N-Benzyl-N-butyl-4-(N-cyclobutylsulfamoyl)benzamide], the IC50 on LIMK1 was 4.47 µM; at LIMK2 it was 0.372 µM.
